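Dose response: 5 concentrations. Exposure: 48 h. Format: 96-well plates. Endpoint: linear interpolation; highest concentration if not reached. GI50: concentration for 50% inhibition of growth. Definition used: TGI = concentration required for complete inhibition of growth.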
Legend:
Test in all cases: growth of human tumour cells (NCI), 48 h
[1] = system: A549 NSCLC
[2] = system: CCRF-CEM leukemia
[3] = system: HL-60(TB) leukemia
[4] = system: OVCAR-5 ovarian
[5] = system: RPMI-8226 leukemia
[6] = system: SF-268 CNS
[7] = system: SNB-19 CNS
[8] = system: SR leukemia
[9] = system: TK-10 renal
[10] = system: K-562 leukemia

Row | Structure (SMILES) | GI50 [1] [µM] | TGI [1] [µM] | GI50 [2] [µM] | TGI [2] [µM] | GI50 [3] [µM] | TGI [3] [µM] | GI50 [4] [µM] | TGI [4] [µM] | GI50 [5] [µM] | TGI [5] [µM] | GI50 [6] [µM] | TGI [6] [µM] | GI50 [7] [µM] | TGI [7] [µM] | GI50 [8] [µM] | TGI [8] [µM] | GI50 [9] [µM] | TGI [9] [µM] | GI50 [10] [µM] | TGI [10] [µM]
1 | Oc1cc(Cl)ccc1Oc1ccc(Cl)cc1Cl | 2.6 | 8.12 | 3.36 | 10.6 | 3.31 | 8.31 | 3.37 | 12.1 | 2.02 | 5.7 | 4.53 | 16.4 | 3.66 | 13.7 | 3.46 | 10.9 | 3.47 | 9.59 | – | –
2 | Cc1ccc2c(c1)ncn2-c1ncnc2c1CC(C)c1ccccc1N2C (stereo unspecified) | 0.248 | 17.5 | 0.046 | 10.5 | 0.0282 | 0.0781 | – | – | 0.149 | 1.82 | 0.209 | 15.6 | 0.17 | 20.7 | 0.0362 | 1.98 | 11.6 | 24.3 | 0.0399 | 11.2
3 | O=C(Nc1ccc2c(c1)oc(=O)c1ccccc12)C(Cl)Cl | – | > 100 | – | > 100 | – | 25.5 | – | > 100 | – | 32.5 | – | > 100 | – | > 100 | – | > 100 | – | – | – | > 100
4 | Cc1c(C)c2ccc(OC/C=C3\CCC(=O)O3)cc2oc1=O | 16.9 | 31.9 | 17.4 | 58.4 | – | – | 16.5 | 31.1 | 6.1 | 40.9 | 17 | 46.1 | 17.2 | 35.9 | – | – | 9.79 | 23 | 29.1 | 88.7
5 | O=C1CCC2(c3ccccc3)Nc3cc(Cl)ccc3N12 (stereo unspecified) | – | > 100 | – | 75.2 | – | 48.1 | – | > 100 | – | 58.6 | – | > 100 | – | – | – | – | – | > 100 | – | > 100
6 | Cc1cccc(C)c1NC(=O)CCCC(=O)C1CCC/C1=N\NC(=O)C(=O)NN (stereo unspecified) | – | > 100 | – | > 100 | – | > 100 | – | > 100 | – | > 100 | – | > 100 | – | > 100 | – | – | – | > 100 | – | > 100
7 | Clc1ccc2nc(Oc3ccccc3)cnc2c1 | > 100 | > 100 | > 100 | > 100 | > 100 | > 100 | > 100 | > 100 | > 100 | > 100 | > 100 | > 100 | > 100 | > 100 | – | – | > 100 | > 100 | > 100 | > 100
8 | CCC1CN2CCc3cc(OC)c(OC)cc3C2CC1CC1c2cc(OC)c(OC)cc2CCN1C(=O)CNC(=O)OC(C)(C)C (stereo unspecified) | – | 62.6 | – | 15.2 | – | 17.6 | – | 77.3 | – | 48.6 | – | 70.3 | – | 53.5 | – | – | – | 85.5 | – | 14.9
9 | Cc1c2ccncc2c(C)c2c1[nH]c1ccc(OC(C)(C)C)cc12 | – | 13.1 | – | 5.77 | – | 3.83 | – | 54.9 | – | 5.49 | – | 25.5 | – | 7.53 | – | – | – | 18.1 | – | 4.93
10 | S=c1ssc(Sc2ccccn2)c1Cl | 21 | 42.7 | – | – | 3.56 | 9.78 | 25.6 | 48.3 | 1.56 | 4.14 | 13.5 | 26.4 | 17 | 41 | 1.7 | 4.64 | 2.11 | 8.57 | 3.63 | 14.5
11 | O=c1[nH]cnc2c(C3OC(CO)C(O)C3O)scc12 (stereo unspecified) | > 100 | > 100 | 0.271 | 1.16 | 19.6 | > 100 | > 100 | > 100 | 26.9 | > 100 | > 100 | > 100 | > 100 | > 100 | – | – | 11.6 | > 100 | 31.5 | > 100
12 | FC(F)(F)c1ccc2nc(Nc3ccc(Cl)c(Cl)c3)c(-c3ccccc3)nc2c1 | – | > 100 | – | > 100 | – | > 100 | – | > 100 | – | > 100 | – | > 100 | – | > 100 | – | > 100 | – | > 100 | – | –
13 | CN(C)C(=O)C1CCC(=C2C(=O)OC(C)(C)OC2=O)N1C (stereo unspecified) | – | > 100 | – | > 100 | – | – | – | > 100 | – | – | – | > 100 | – | > 100 | – | – | – | > 100 | – | > 100
14 | COc1cc(Oc2c(O)c(C)c(OC)c(C(C)=O)c2O)c(C(C)=O)c(O)c1C | – | > 100 | – | > 100 | – | – | – | > 100 | – | – | – | > 100 | – | > 100 | – | > 100 | – | 86.7 | – | –
15 | COc1ccc(COCC(Cn2ccnc2)OCc2ccc(C(=O)O)cc2)cc1 (stereo unspecified) | – | > 100 | – | > 100 | – | > 100 | – | > 100 | – | > 100 | – | > 100 | – | – | – | – | – | > 100 | – | > 100
16 | CCOC(=O)c1cnn(-c2ccnc3c(C(F)(F)F)cccc23)c1N | > 100 | > 100 | > 100 | > 100 | > 100 | > 100 | > 100 | > 100 | 98.4 | > 100 | > 100 | > 100 | > 100 | > 100 | – | – | > 100 | > 100 | > 100 | > 100
17 | CN(C)CCNC(=O)c1ccc(Cl)c2c(Nc3ccc(S(N)(=O)=O)cc3)c3ccccc3nc12 | – | 11.9 | – | – | – | – | – | 8.48 | – | 29.1 | – | 13.8 | – | 14.5 | – | > 100 | – | 13.6 | – | 11.4
18 | FC(F)(F)C12C34C=CC5(CCC6(C=CC1(CC3)O6)C52C(F)(F)F)O4 (stereo unspecified) | – | > 100 | – | > 100 | – | > 100 | – | > 100 | – | – | – | > 100 | – | > 100 | – | > 100 | – | > 100 | – | > 100

From PubChem BioAssay (NCI)
